We go through 19 molecules from patent US20060074243A1, “Hydroxamic acid and amide compounds and their use as protease inhibitors” (Pharmacia Corporation, priority 2002, published 2006).

The target in one test is T1, Human recombinant MMP-14 (Homo sapiens, UniProt P50281).
T1 construct: The catalytic domain enzyme was expressed in E. coli inclusion bodies, solubilized in urea; made in house
Description: In vitro MMP inhibition analysis (fluorogenic peptide substrate cleavage), Ki. It is filed as biochemical. The conditions noted are these: Table 2. In a few lines:
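Refolded catalytic domain of MMP-14 expressed in E. coli, activated with APMA or trypsin, incubated 1 h at room temperature with 4 μM MCA-peptide substrate in Tris buffer pH 7.5 with CaCl2. Cleavage rate followed by fluorescence (ex 330/em 420 nm). Ki from Morrison-equation fit; substrate at or below Km, so no substrate correction.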

The target in the next test is T2, Human recombinant MMP-13 (Homo sapiens, UniProt P45452).
T2 construct: made in house; host or cells: baculovirus / insect cells
The test is described as above. The class given is biochemical. The conditions noted are these: Table 2. In a few lines:
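Baculovirus-expressed full-length MMP-13 proenzyme was purified on heparin-agarose and zinc-chelate columns, then APMA-activated. It cleaved 4 μM MCA/Dpa fluorogenic peptide in 100 mM Tris-HCl, 100 mM NaCl, 10 mM CaCl2, 0.05% Brij-23, pH 7.5, for 1 h at room temperature (ex 330/em 420 nm). Ki came from Morrison-equation fits with substrate ≤Km, uncorrected.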

On to `COCCOc1ccc(-c2ccc(S(=O)(=O)C3(C(=O)NO)CCN(CCOC)CC3)cc2)cc1` [Example 115], for which the Ki (in general, the dissociation constant of the complex between target and ligand, obtained from inhibition or displacement) on Human recombinant MMP-14 stood at 530 nM; at Human recombinant MMP-13, 0.025 nM.
With `CC(C)CCOc1ccc(-c2ccc(S(=O)(=O)C3(C(=O)NO)CCOCC3)cc2)cc1` [Example 108], the Ki at Human recombinant MMP-14 was 744 nM; on Human recombinant MMP-13, 0.199 nM.
`CCN1CCC(C(=O)NO)(S(=O)(=O)c2ccc(-c3ccc(OCCOC)cc3)cc2)CC1` [Example 111]: the Ki at Human recombinant MMP-14 amounted to 1790 nM; on Human recombinant MMP-13, 0.066 nM.
With `COCCN1CCC(C(=O)NO)(S(=O)(=O)c2ccc(-c3ccc(OCCN4CCCC4)cc3)cc2)CC1` [Example 72], the Ki on Human recombinant MMP-14 amounted to 2280 nM; on Human recombinant MMP-13 it was 2.25 nM.
On the same counts, the results for `CCOCCOc1ccc(-c2ccc(S(=O)(=O)C3(C(=O)NO)CCN(CCOC)CC3)cc2)cc1` [Example 117] are 1110 nM and 0.037 nM.
For `O=C(NO)C1(S(=O)(=O)c2ccc(-c3ccc(CCO)cc3)cc2)CCOCC1` [Example 98], the Ki on Human recombinant MMP-14 turned out to be 52.6 nM; on Human recombinant MMP-13, 0.147 nM.
On to `COCCOc1ccc(-c2ccc(S(=O)(=O)C3(C(=O)NO)CCN(C4CC4)CC3)cc2)cc1` [Example 113], for which the inhibitory constant (Ki) on Human recombinant MMP-14 was determined as 499 nM; at Human recombinant MMP-13, 0.031 nM.
On the same counts, the results for `O=C(NO)C1(S(=O)(=O)c2ccc(-c3ccc(-c4ccccc4)cc3)cc2)CCOCC1` [Example 104] are 247 nM and 0.032 nM.
On the same counts, the results for `CCOCCOc1ccc(-c2ccc(S(=O)(=O)C3(C(=O)NO)CCN(CC)CC3)cc2)cc1` [Example 116] are 2930 nM and 0.05 nM.
Consider `COCCOc1ccc(-c2ccc(S(=O)(=O)C3(C(=O)NO)CCN(CCOC)CC3)cc2)cc1F` [Example 114], for which the Ki is 585 nM at Human recombinant MMP-14 and 0.042 nM on Human recombinant MMP-13.
Regarding `COCCOc1ccc(-c2ccc(S(=O)(=O)C3(C(=O)NO)CCN(C4CC4)CC3)cc2)cc1F` [Example 112], the figures for the Ki at Human recombinant MMP-14 and at Human recombinant MMP-13 were 681 nM and 0.058 nM, respectively.
As for `COc1ccc(-c2ccc(S(=O)(=O)C3(C(=O)NO)CCOCC3)cc2)cc1F` [Example 102], the inhibitory constant (Ki) at Human recombinant MMP-14 is 11.1 nM; on Human recombinant MMP-13, 0.075 nM.
In the case of `CCN1CCC(C(=O)NO)(S(=O)(=O)c2ccc(-c3ccc(OCCOC)c(F)c3)cc2)CC1` [Example 110], the Ki at Human recombinant MMP-14 was found to be 1850 nM; on Human recombinant MMP-13, 0.144 nM.
Turning to `CCCCc1nc(-c2ccc(S(=O)(=O)C3(C(=O)NO)CCOCC3)cc2)no1` [Example 105], the Ki at Human recombinant MMP-14 was determined as 1730 nM; on Human recombinant MMP-13, 3.67 nM.
On the same counts, the results for `COC(C)CCOc1ccc(-c2ccc(S(=O)(=O)C3(C(=O)NO)CCOCC3)cc2)cc1C(F)(F)F` (centres unmarked) [Example 100] are over 10000 nM and 9.4 nM.
As for `CC(C)Cc1ccc(-c2ccc(S(=O)(=O)C3(C(=O)NO)CCOCC3)cc2)nc1` [Example 103], the Ki on Human recombinant MMP-14 came to 342 nM; at Human recombinant MMP-13, 0.117 nM.
`CC(C)CCc1ccc(-c2ccc(S(=O)(=O)C3(C(=O)NO)CCOCC3)cc2)nc1` [Example 99]: the results for the Ki at Human recombinant MMP-14 and on Human recombinant MMP-13 were 421 nM and 0.052 nM, respectively.
Consider `O=C(NO)C1(S(=O)(=O)c2ccc(-c3cnccn3)cc2)CCOCC1` [Example 71], for which the Ki on Human recombinant MMP-14 was 224 nM; on Human recombinant MMP-13 it was 1.73 nM.
Regarding `CCCCCc1ccc(-c2ccc(S(=O)(=O)C3(C(=O)NO)CCOCC3)cc2)c(F)c1` [Example 101], the Ki at Human recombinant MMP-14 was 929 nM; at Human recombinant MMP-13, 0.4 nM.
